# Data: ChEMBL document CHEMBL1142994, “Structure-based design, synthesis, and biological evaluation of potent and selective macrocyclic checkpoint kinase 1 inhibitors” (J Med Chem, 2007)
# Legend:
# [1] = target: T1, Serine/threonine-protein kinase Chk1 (Homo sapiens, UniProt O14757); test: Inhibition of recombinant Chk1
# T1 sequence (O14757 whole entry): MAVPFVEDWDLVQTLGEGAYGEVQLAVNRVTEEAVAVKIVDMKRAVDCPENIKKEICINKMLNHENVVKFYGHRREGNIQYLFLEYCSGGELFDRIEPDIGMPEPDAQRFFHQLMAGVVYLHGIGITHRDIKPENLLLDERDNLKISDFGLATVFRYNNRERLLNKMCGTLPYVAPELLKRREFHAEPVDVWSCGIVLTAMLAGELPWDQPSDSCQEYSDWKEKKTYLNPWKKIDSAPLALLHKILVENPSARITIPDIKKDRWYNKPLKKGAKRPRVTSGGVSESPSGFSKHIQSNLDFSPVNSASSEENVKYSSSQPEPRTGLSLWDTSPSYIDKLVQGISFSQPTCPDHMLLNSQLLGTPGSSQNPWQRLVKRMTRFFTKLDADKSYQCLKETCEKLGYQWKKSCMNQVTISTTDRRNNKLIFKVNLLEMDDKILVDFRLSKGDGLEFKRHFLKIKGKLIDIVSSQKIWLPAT
# [2] = target: T2, Calcium/calmodulin-dependent protein kinase type IV (Homo sapiens, UniProt Q16566); test: Inhibition of Camk4
# T2 sequence (Q16566 whole entry): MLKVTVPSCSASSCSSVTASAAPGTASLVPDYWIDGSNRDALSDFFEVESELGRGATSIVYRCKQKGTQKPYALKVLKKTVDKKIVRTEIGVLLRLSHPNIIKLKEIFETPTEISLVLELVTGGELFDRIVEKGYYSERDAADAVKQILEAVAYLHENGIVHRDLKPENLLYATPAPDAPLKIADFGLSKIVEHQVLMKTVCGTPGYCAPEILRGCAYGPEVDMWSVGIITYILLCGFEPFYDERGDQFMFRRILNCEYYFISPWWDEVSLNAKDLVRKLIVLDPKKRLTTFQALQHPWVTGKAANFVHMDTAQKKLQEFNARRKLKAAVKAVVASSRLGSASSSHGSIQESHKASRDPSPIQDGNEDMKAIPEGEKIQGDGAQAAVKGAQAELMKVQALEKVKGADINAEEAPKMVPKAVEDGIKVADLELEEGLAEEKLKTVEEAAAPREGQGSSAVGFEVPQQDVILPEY
# [3] = target: T3, Mitogen-activated protein kinase 13 (Homo sapiens, UniProt O15264); test: Inhibition of p38 delta
# T3 sequence (O15264 whole entry): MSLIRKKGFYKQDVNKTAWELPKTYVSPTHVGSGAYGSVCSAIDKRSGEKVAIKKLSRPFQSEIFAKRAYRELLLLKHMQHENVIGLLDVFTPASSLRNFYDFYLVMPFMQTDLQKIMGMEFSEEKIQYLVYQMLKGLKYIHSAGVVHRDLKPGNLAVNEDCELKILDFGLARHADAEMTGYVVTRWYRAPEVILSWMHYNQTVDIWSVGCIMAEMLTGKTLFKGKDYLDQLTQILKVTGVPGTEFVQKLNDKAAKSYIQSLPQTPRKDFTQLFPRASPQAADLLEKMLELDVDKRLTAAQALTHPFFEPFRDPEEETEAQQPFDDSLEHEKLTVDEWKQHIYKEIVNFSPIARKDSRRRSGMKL
# [4] = target: T4, Serine/threonine-protein kinase Sgk1 (Homo sapiens, UniProt O00141); test: Inhibition of SGK
# T4 sequence (O00141 whole entry): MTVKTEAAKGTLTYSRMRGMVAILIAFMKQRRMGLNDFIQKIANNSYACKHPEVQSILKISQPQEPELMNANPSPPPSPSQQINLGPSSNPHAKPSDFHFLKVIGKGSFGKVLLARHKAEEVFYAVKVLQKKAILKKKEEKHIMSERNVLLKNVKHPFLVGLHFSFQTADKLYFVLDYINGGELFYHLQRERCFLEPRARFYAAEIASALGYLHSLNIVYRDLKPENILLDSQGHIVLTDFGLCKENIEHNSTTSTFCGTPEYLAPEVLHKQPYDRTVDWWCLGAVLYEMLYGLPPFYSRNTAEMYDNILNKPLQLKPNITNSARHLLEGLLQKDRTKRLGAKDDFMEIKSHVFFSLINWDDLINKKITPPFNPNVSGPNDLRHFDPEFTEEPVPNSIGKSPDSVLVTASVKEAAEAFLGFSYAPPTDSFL
# [5] = test system: NCI-H1299; test: Inhibition of accumulation of H1299 cells in G2/M phase in presence of doxorubicin by FACS assay; assay type: functional, cell-based, Homo sapiens
# [6] = test system: HeLa; test: Cytotoxicity against HeLa cells in presence of doxorubicin by MTS assay; assay type: functional, cell-based, Homo sapiens
# [7] = test system: HeLa; test: Cytotoxicity against HeLa cells by MTS assay; assay type: functional, cell-based, Homo sapiens
# [8] = test system: NCI-H1299; test: Accumulation of H1299 cells in G2/M phase measured as cell cycle arrest by FACS assay; assay type: functional, cell-based, Homo sapiens
# [9] = Homo sapiens, HeLa, read-out: EC50
SMILES,IC50 [1] [nM],further results
N#Cc1ncc2nc1OCCCCCOc1cc(NCc3ccsc3)c(Cl)cc1NC(=O)N2,162,–
N#Cc1ncc2nc1OCCCCCOc1cc(NC(=O)CCNC3CCCC3)c(Cl)cc1NC(=O)N2,2,–
N#Cc1ncc2nc1OCCCCCOc1cc(OCCCO)c(Cl)cc1NC(=O)N2,–,Ki [2]: > 10000 nM; Ki [3]: > 10000 nM; Ki [4]: > 10000 nM
N#Cc1ncc2nc1OCCCCCOc1cc(NCc3cccnc3)c(Cl)cc1NC(=O)N2,12,"EC50 ([5]; nci-h1299): 330 nM; EC50 ([6]; hela): 1600 nM; EC50 ([7]; hela, read-out: EC50): > 59000 nM; EC50 ([8]; nci-h1299): > 10000 nM"
N#Cc1ncc2nc1OCCCCCOc1cc(N)c(Cl)cc1NC(=O)N2,3,"EC50 ([5]; Homo sapiens, NCI-H1299): 240 nM; EC50 ([6]; Homo sapiens, HeLa): 430 nM; EC50 [7, 9]: > 59000 nM; EC50 ([8]; Homo sapiens, NCI-H1299): 7600 nM"
N#Cc1ncc2nc1OCCCCCOc1cc(NCc3cnco3)c(Cl)cc1NC(=O)N2,7,–
N#Cc1ncc2nc1OCCCCOc1ccc(Cl)cc1NC(=O)N2,6,"EC50 ([6]; Homo sapiens, HeLa): 3080 nM; EC50 [7]: 57600 nM; EC50 ([8]; Homo sapiens, NCI-H1299): > 10000 nM"
Cn1cncc1CNc1cc2c(cc1Cl)NC(=O)Nc1cnc(C#N)c(n1)OCCCCCO2,2,–
N#Cc1ncc2nc1OCCCCCOc1cc(O)c(Cl)cc1NC(=O)N2,6,"EC50 ([6]; Homo sapiens, HeLa): 1900 nM; EC50 [7, 9]: > 59000 nM"
N#Cc1ncc2nc1OCCCCCOc1cc(OCCO)c(Cl)cc1NC(=O)N2,–,"EC50 ([5]; Homo sapiens, NCI-H1299): 700 nM; EC50 ([6]; Homo sapiens, HeLa): 3010 nM; EC50 [7, 9]: > 59000 nM; EC50 ([8]; Homo sapiens, NCI-H1299): > 10000 nM"
N#Cc1ncc2nc1OCCCCCOc1cc(NCc3c[nH]cn3)c(Cl)cc1NC(=O)N2,231,–

# Continued, in another order:
IC50 [1] [nM],SMILES,further results
15,CCCCNc1cc2c(cc1Cl)NC(=O)Nc1cnc(C#N)c(n1)OCCCCCO2,–
4,N#Cc1ncc2nc1OCCCCCOc1cc(N(CCO)CCO)c(Cl)cc1NC(=O)N2,–
2,CNc1cc2c(cc1Cl)NC(=O)Nc1cnc(C#N)c(n1)OCCCCCO2,–
13,CC(C)Oc1cc2c(cc1Cl)NC(=O)Nc1cnc(C#N)c(n1)OCCCCCO2,–
17,CC(C)CNc1cc2c(cc1Cl)NC(=O)Nc1cnc(C#N)c(n1)OCCCCCO2,–
1,N#Cc1ncc2nc1OCCCCCOc1cc(OCCCN)c(Cl)cc1NC(=O)N2,–
5,COCCOc1cc2c(cc1Cl)NC(=O)Nc1cnc(C#N)c(n1)OCCCCCO2,–
28,N#Cc1ncc2nc1OCCCCCCOc1ccc(Cl)cc1NC(=O)N2,–
> 10000,CC(C)CCCOc1cc2c(cc1Cl)NC(=O)Nc1cnc(C#N)c(n1)OCCCCCO2,–
9,COCCOCCOc1cc2c(cc1Cl)NC(=O)Nc1cnc(C#N)c(n1)OCCCCCO2,–
109,CC(C)(O)C#Cc1cc2c(cc1Cl)NC(=O)Nc1cnc(C#N)c(n1)OCCCCCO2,–
7,CN(C)c1cc2c(cc1Cl)NC(=O)Nc1cnc(C#N)c(n1)OCCCCCO2,–
248,CCN(CC)c1cc2c(cc1Cl)NC(=O)Nc1cnc(C#N)c(n1)OCCCCCO2,–
